Assay: xn = mol fraction of the nth substance listed
Conditions: Liquid, Vibrating tube method

CCCCCCCO [heptan-1-ol] + CCCCCCC
mass density [kg/m3]
Conditions	x1 = 0.1493	x1 = 0.3215	x1 = 0.5226	x1 = 0.6698	x1 = 0.8469	x1 = 1
298.15 K, 100 kPa	699.7	723.4	751.3	772.6	804.4	818.7
298.15 K, 1000 kPa	700.6	724.2	752.1	773.3	805.1	819.3
298.15 K, 5000 kPa	704.1	727.6	755.2	776.2	807.8	821.9
298.15 K, 10000 kPa	708.4	731.6	759	779.7	811.1	824.9
298.15 K, 15000 kPa	712.4	735.4	762.6	783.2	814.2	828
298.15 K, 20000 kPa	716.2	739.1	765.9	786.3	817.2	830.8
298.15 K, 25000 kPa	719.8	742.4	769.1	789.4	820	833.5
298.15 K, 30000 kPa	723.3	745.8	772.3	792.5	822.8	836.3
298.15 K, 35000 kPa	726.5	748.9	775.3	795.3	825.4	838.8
298.15 K, 40000 kPa	729.7	751.9	778.2	798	828.1	841.3
298.15 K, 45000 kPa	732.8	754.9	781	800.7	830.6	843.8
298.15 K, 50000 kPa	735.6	757.7	783.6	803.3	833	846.2
298.15 K, 55000 kPa	738.5	760.5	786.3	805.9	835.4	848.5
298.15 K, 60000 kPa	741.2	763.2	788.8	808.3	837.7	850.8
298.15 K, 65000 kPa	743.9	765.7	791.3	810.7	839.9	853
298.15 K, 70000 kPa	746.5	768.2	793.7	813.1	842.2	855.2
298.15 K, 80000 kPa	751.4	773	798.4	817.6	846.4	859.4
298.15 K, 90000 kPa	756.2	777.7	802.8	821.9	850.6	863.5
298.15 K, 100000 kPa	760.6	782	807	826	854.5	867.3
298.15 K, 110000 kPa	764.9	786.1	811.2	830	858.4	871.1
298.15 K, 120000 kPa	768.9	790.1	815	833.8	861.9	874.6
298.15 K, 130000 kPa	772.8	793.9	818.7	837.4	865.5	878.1
298.15 K, 140000 kPa	776.5	797.6	822.3	840.9	868.9	881.5
313.15 K, 100 kPa	686.8	711	739.3	760.9	793.4	808
313.15 K, 1000 kPa	687.7	711.8	740.1	761.7	794	808.6
313.15 K, 5000 kPa	691.7	715.5	743.5	764.9	796.9	811.4
313.15 K, 10000 kPa	696.4	719.9	747.6	768.7	800.4	814.7
313.15 K, 15000 kPa	700.8	724.1	751.5	772.3	803.8	817.9
313.15 K, 20000 kPa	704.9	728	755.2	775.8	807	821
313.15 K, 25000 kPa	708.6	731.5	758.4	778.9	809.9	823.8
313.15 K, 30000 kPa	712.6	735.3	762	782.3	813	826.8
313.15 K, 35000 kPa	716.1	738.7	765.2	785.4	815.9	829.5
313.15 K, 40000 kPa	719.4	741.9	768.2	788.3	818.5	832.1
313.15 K, 45000 kPa	722.7	745	771.2	791.1	821.2	834.7
313.15 K, 50000 kPa	725.8	748	774.1	793.9	823.8	837.2
313.15 K, 55000 kPa	728.8	750.9	776.9	796.6	826.4	839.7
313.15 K, 60000 kPa	731.8	753.8	779.6	799.2	828.8	842.1
313.15 K, 65000 kPa	734.6	756.5	782.2	801.8	831.2	844.4
313.15 K, 70000 kPa	737.3	759.1	784.8	804.2	833.6	846.7
313.15 K, 80000 kPa	742.5	764.2	789.6	808.9	838	851.1
313.15 K, 90000 kPa	747.5	769	794.3	813.5	842.4	855.3
313.15 K, 100000 kPa	752.1	773.6	798.7	817.7	846.4	859.3
313.15 K, 110000 kPa	756.6	778	803	821.9	850.4	863.2
313.15 K, 120000 kPa	760.8	782.1	807	825.8	854.2	867
313.15 K, 130000 kPa	765	786.2	810.9	829.7	857.9	870.6
313.15 K, 140000 kPa	768.9	790.1	814.7	833.4	861.5	874.2
333.15 K, 100 kPa	669.3	693.9	722.8	745	778	793.3
333.15 K, 1000 kPa	670.5	694.9	723.7	745.8	778.8	794
333.15 K, 5000 kPa	675.1	699.1	727.6	749.5	782	797.1
333.15 K, 10000 kPa	680.5	704.1	732.1	753.7	785.9	800.7
333.15 K, 15000 kPa	685.6	708.9	736.5	757.8	789.7	804.3
333.15 K, 20000 kPa	690.2	713.2	740.5	761.7	793.1	807.7
333.15 K, 25000 kPa	694.5	717.3	744.4	765.3	796.5	810.8
333.15 K, 30000 kPa	698.8	721.2	748.1	768.8	799.7	813.9
333.15 K, 35000 kPa	702.7	725	751.6	772.1	802.8	816.9
333.15 K, 40000 kPa	706.4	728.5	755	775.3	805.8	819.8
333.15 K, 45000 kPa	710	731.9	758.1	778.3	808.7	822.4
333.15 K, 50000 kPa	713.5	735.2	761.3	781.4	811.5	825.2
333.15 K, 55000 kPa	716.7	738.3	764.3	784.2	814.2	827.8
333.15 K, 60000 kPa	719.9	741.3	767.2	787	816.8	830.3
333.15 K, 65000 kPa	723	744.3	770	789.8	819.4	832.9
333.15 K, 70000 kPa	726	747.2	772.8	792.4	821.9	835.3
333.15 K, 80000 kPa	731.6	752.6	778	797.4	826.7	839.9
333.15 K, 90000 kPa	737	757.8	783	802.3	831.3	844.5
333.15 K, 100000 kPa	742	762.6	787.7	806.8	835.6	848.7
333.15 K, 110000 kPa	746.8	767.3	792.2	811.2	839.8	852.8
333.15 K, 120000 kPa	751.3	771.6	796.4	815.4	843.8	856.8
333.15 K, 130000 kPa	755.6	775.8	800.6	819.4	847.7	860.5
333.15 K, 140000 kPa	759.8	–	–	–	–	–

From the NIST ThermoML archive (doi:10.1016/j.jct.2013.05.051)
